One assay addresses T1, α4β1 integrin (Homo sapiens, UniProt P05556+P13612).
T1 construct: monitoring the capture of α4β1 expressing cells; endogenous in cells; host or cells: Jurkat
Kind of assay: α4β1 Cell Capture Assay. It counts as cell-based. To be noted: capture of α4β1 expressing Jurkat cells on VCAM-1 extracellular domain-coated plate. On the procedure: The potency of inhibitors in preventing α4β1 integrin interaction with VCAM-1 was measured by monitoring the capture of α4β1 expressing cells to a recombinant VCAM-1 extracellular domain-coated plate.
384-well plates (Corning 3702) were coated with VCAM-1 extracellular domain by dispensing 20 μL of VCAM-1 at 0.5 μg/ml per well and incubating overnight at 4° C. The plates were then washed with PBS and blocked with 3% BSA for 2 hours before being washed again.
(§1) Jurkat cells were spun down and re-suspended in assay medium (DMEM+0.5% FBS+0.5 mM MnCl2) at a density of 0.5×10^6 cells/ml. The cells were then dispensed (60 μL/well) to a 384-well plate (Greiner 781280) that was previously spotted with 60 nL of test compound per well. The plates were incubated at 37° C. for 1 hour. 50 μL of cells were transferred to the blocked, VCAM-1-coated plates and incubated for 30 minutes at 37° C. 10 μl of 12% glutaraldehyde containing Hoechst 33342 (0.06 mg/mL) was added to the cells (2% glutaraldehyde and 0.01 mg/ml Hoechst 33342 final concentrations). The plates were incubated for 90 minutes at room temperature. The plates were then washed 3 times with 70 μL of PBS per well and imaged on a Cellomics ArrayScan instrument. The cells that were bound to the plate were counted and plotted against the compound concentration to determine the EC50 of the test compounds.

In another assay the target is T2, α4β7 integrin (Homo sapiens, UniProt P13612+P26010).
T2 construct: monitoring the capture of α4β7 integrin expressing cells; endogenous in cells; host or cells: RPMI8866
T2 sequence (P13612 34-1032): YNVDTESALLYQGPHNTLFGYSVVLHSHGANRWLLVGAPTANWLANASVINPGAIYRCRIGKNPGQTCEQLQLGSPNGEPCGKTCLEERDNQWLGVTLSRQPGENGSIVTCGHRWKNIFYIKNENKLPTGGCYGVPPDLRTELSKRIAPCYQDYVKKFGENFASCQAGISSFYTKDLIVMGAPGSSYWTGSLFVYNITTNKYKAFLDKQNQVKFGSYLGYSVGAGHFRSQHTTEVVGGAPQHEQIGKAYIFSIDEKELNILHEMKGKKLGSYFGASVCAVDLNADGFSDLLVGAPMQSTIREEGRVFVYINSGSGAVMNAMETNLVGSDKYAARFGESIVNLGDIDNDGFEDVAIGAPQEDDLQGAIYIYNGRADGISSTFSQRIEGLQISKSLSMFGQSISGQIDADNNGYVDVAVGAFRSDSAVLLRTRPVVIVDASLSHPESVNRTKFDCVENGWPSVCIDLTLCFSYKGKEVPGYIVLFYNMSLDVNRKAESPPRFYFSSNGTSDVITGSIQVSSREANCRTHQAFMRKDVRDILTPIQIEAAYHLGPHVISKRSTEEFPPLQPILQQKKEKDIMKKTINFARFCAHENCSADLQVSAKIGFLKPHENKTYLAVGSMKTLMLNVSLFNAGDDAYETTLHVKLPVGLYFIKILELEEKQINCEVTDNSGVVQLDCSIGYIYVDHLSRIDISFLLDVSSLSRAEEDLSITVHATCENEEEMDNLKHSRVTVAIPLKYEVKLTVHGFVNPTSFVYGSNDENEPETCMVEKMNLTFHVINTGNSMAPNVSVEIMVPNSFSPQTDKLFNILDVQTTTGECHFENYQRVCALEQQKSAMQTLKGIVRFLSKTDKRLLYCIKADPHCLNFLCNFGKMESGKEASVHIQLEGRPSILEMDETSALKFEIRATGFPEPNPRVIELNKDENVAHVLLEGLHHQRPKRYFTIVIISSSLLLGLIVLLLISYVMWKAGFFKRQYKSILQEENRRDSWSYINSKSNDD
T2 sequence (P26010 20-798): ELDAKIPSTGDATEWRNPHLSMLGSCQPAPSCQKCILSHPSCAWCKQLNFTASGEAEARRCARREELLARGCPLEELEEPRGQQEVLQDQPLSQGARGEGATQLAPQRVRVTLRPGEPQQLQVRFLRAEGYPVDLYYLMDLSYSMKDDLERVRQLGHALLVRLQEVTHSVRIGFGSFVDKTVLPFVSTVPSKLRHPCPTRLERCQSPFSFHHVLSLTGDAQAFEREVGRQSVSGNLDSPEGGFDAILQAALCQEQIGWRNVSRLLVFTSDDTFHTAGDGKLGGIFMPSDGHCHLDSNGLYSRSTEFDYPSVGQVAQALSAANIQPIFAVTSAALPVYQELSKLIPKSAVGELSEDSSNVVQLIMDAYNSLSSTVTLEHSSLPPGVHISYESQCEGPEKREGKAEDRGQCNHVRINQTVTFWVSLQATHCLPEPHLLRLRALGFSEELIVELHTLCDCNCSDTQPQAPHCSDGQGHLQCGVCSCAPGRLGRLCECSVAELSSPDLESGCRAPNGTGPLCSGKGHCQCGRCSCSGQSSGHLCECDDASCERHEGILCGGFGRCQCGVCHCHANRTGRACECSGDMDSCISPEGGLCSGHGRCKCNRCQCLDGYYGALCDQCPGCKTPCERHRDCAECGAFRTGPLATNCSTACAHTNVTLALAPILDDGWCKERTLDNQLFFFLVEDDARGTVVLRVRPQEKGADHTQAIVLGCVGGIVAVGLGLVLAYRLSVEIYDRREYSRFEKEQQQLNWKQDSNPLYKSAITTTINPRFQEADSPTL
Kind of assay: α4β7 Integrin Cell Capture Assay. To be noted: capture of α4β7 integrin expressing RPM18866 cells on MadCAM-1 extracellular domain-coated plate. It counts as cell-based. On the procedure:
The potency of inhibitors in preventing α4β7 integrin interaction with MadCAM-1 was measured by monitoring the capture of α4β7 integrin expressing cells on a recombinant MadCAM-1 extracellular domain-coated plate.
384-well plates (Corning 3702) were coated with MadCAM-1 extracellular domain by dispensing 20 μL of MAdCAM-1 at 1.0 μg/mL per well and incubating overnight at 4° C. The plates were then washed with PBS and blocked with 3% BSA for 2 hours before being washed again.
as §1, with “RPM18866” for “Jurkat”, “cells/mL.” for “cells/ml.”, “MadCAM-1-coated” for “VCAM-1-coated”, “μL” for “μl”, “mg/mL” for “mg/ml Hoechst 33342”

pEC50: −log10 of the molar value.

T1 sequence (P05556 21-798, one chain of several): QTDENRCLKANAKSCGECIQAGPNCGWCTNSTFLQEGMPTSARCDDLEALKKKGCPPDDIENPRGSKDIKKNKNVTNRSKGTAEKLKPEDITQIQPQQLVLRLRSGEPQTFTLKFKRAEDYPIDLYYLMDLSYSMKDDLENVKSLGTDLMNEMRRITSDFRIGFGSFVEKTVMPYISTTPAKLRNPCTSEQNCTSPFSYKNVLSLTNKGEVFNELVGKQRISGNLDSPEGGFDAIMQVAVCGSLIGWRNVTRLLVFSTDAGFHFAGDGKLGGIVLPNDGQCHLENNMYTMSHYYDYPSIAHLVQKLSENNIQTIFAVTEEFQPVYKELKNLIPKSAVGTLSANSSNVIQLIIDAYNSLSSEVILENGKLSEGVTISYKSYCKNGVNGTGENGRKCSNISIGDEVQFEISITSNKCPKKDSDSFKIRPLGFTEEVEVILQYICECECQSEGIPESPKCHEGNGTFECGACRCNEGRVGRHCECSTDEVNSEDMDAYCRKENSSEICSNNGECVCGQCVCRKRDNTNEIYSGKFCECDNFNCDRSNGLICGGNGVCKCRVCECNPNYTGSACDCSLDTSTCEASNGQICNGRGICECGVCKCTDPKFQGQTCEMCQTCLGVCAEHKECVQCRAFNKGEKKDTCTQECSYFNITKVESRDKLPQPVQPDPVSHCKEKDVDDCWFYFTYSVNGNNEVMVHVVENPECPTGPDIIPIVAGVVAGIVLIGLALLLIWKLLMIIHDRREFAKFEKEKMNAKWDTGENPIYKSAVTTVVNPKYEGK

`CC[C@@H](Nc1cc(F)c(C(=O)N[C@@H](Cc2ccc(-n3c(=O)c4ccncc4n(C)c3=O)nc2)C(=O)O)c(F)c1F)C(F)(F)F` [Example 17, (S)-3-(6-(1-methyl-2,4-dioxo-1,4-dihydropyrido[3,4-d]pyrimidin-3(2H)-yl)pyridin-3-yl)-2-(2,3,6-trifluoro-4-(((R)-1,1,1-trifluorobutan-2-yl)amino)benzamido)propanoic acid]: the negative-log EC50 (pEC50) (commonly the negative decadic logarithm of the EC50, by convention in mol/L) is 7.23 on α4β1 integrin (Table 1) and 9.15 on α4β7 integrin (Table 1).
For the compound `Cc1cc(N2CCOC[C@@H]2C(F)(F)F)cc(F)c1C(=O)N[C@@H](Cc1ccc(-n2c(=O)c3ccncc3n(C)c2=O)c(F)c1)C(=O)O` [Example 84], the negative-log EC50 (pEC50) at α4β1 integrin (Table 2) is 8.77; at α4β7 integrin (Table 2), 10.30.
With `Cn1c(=O)n(-c2c(F)cc(C[C@H](NC(=O)c3c(F)cc(N4CCOC[C@@H]4C(F)(F)F)cc3F)C(=O)O)cc2F)c(=O)c2ccncc21` [Example 82], the negative logarithm of the EC50 (pEC50) at α4β1 integrin (Table 2) was 8.35; on α4β7 integrin (Table 2), 9.82.
The matching figures for `CC[C@@H](Nc1cc(F)c(C(=O)N[C@@H](Cc2ccc(-c3c(C)c4cc(F)ccc4n(C)c3=O)nc2)C(=O)O)c(F)c1)C(F)(F)F` [Example 44]: 7.42 and 8.54.
In the same order, the values of `Cc1cc(C[C@H](NC(=O)c2c(C)cc(N3CCOC[C@@H]3C(F)(F)F)cc2F)C(=O)O)ccc1-c1c(C)nc(C)n(C)c1=O` [Example 40] are 8.11 and 9.52.
On to `CCOCc1cc(OC)c(-c2ccc(C[C@H](NC(=O)c3c(F)cc(N[C@H](c4ccccc4)C(F)(F)F)cc3F)C(=O)O)cc2)c(OC)c1` [Example 28], for which the values for the negative-log EC50 (pEC50) on α4β1 integrin (Table 2) and on α4β7 integrin (Table 2) were 7.15 and 8.14, respectively.
Consider `Cc1cc(N2CCOC[C@@H]2C(F)(F)F)cc(F)c1C(=O)N[C@@H](Cc1ccc(-n2c(=O)c3c(n(C)c2=O)COCC3)cc1)C(=O)O` [Example 63, (S)-2-(2-fluoro-6-methyl-4-((R)-3-(trifluoromethyl)morpholino)benzamido)-3-(4-(1-methyl-2,4-dioxo-1,2,4,5,6,8-hexahydro-3H-pyrano[3,4-d]pyrimidin-3-yl)phenyl)propanoic acid], for which the negative-log EC50 (pEC50) is 8.43 on α4β1 integrin (Table 1) and 10.00 at α4β7 integrin (Table 1).
The matching figures for `CC[C@@H](Nc1cc(C)c(C(=O)N[C@@H](Cc2ccc(-n3c(=O)c4ccncc4n(C)c3=O)nc2)C(=O)O)c(F)c1)C(F)(F)F` [Example 11, (S)-2-(2-fluoro-6-methyl-4-(((R)-1,1,1-trifluorobutan-2-yl)amino)benzamido)-3-(6-(1-methyl-2,4-dioxo-1,4-dihydropyrido[3,4-d]pyrimidin-3(2H)-yl)pyridin-3-yl)propanoic acid]: 7.52 and 9.30.
As for `Cc1cc(C[C@H](NC(=O)c2c(F)cc(N3CCOC[C@@H]3C(F)(F)F)cc2F)C(=O)O)ccc1-c1c(C(F)(F)F)cc(C)n(C)c1=O` [Example 29], the figures for the negative logarithm of the EC50 (pEC50) on α4β1 integrin (Table 2) and at α4β7 integrin (Table 2) were 7.54 and 9.22, respectively.
Turning to `Cc1cc(N2CCOC[C@@H]2C(F)(F)F)cc(F)c1C(=O)N[C@@H](Cc1ccc(-n2c(=O)c3c(n(C)c2=O)CCOC3)cc1)C(=O)O` [Example 59, (S)-2-(2-fluoro-6-methyl-4-((R)-3-(trifluoromethyl)morpholino)benzamido)-3-(4-(1-methyl-2,4-dioxo-1,5,7,8-tetrahydro-2H-pyrano[4,3-d]pyrimidin-3(4H)-yl)phenyl)propanoic acid], the pEC50 at α4β1 integrin (Table 1) is 8.54; at α4β7 integrin (Table 1), 10.00.
With `Cc1cc(C[C@H](NC(=O)c2c(F)cc(N3CCOC[C@@H]3C(F)(F)F)cc2F)C(=O)O)ccc1-c1c(C)n(C)c(=O)n(C)c1=O` [Example 39], the figures for the pEC50 at α4β1 integrin (Table 2) and on α4β7 integrin (Table 2) were 7.89 and 9.40, respectively.
Take `Cc1cc(N2CCOC[C@@H]2C(F)(F)F)cc(F)c1C(=O)N[C@@H](Cc1ccc(-n2c(=O)c3ccncc3n(C)c2=O)c(OC(F)(F)F)c1)C(=O)O` (atropisomer, axis not shown) [Example 93]: the pEC50 at α4β1 integrin (Table 2) was 7.59; on α4β7 integrin (Table 2) it was 9.40.
In the case of `Cn1c2c(c(=O)n(-c3ccc(C[C@H](NC(=O)c4c(F)cc(N5CCOC[C@@H]5C(F)(F)F)cc4F)C(=O)O)cc3)c1=O)CCOC2` [Example 61, (S)-2-(2,6-difluoro-4-((R)-3-(trifluoromethyl)morpholino)benzamido)-3-(4-(1-methyl-2,4-dioxo-1,2,4,5,6,8-hexahydro-3H-pyrano[3,4-d]pyrimidin-3-yl)phenyl)propanoic acid], the results for the pEC50 at α4β1 integrin (Table 1) and on α4β7 integrin (Table 1) were 7.94 and 9.40, respectively.
In the case of `COc1cnc2c(=O)n(-c3ccc(C[C@H](NC(=O)c4c(C)cc(N5CCOC[C@@H]5C(F)(F)F)cc4F)C(=O)O)cn3)c(=O)n(C)c2c1` [Example 78], the pEC50 was 8.47 at α4β1 integrin (Table 2) and 9.80 on α4β7 integrin (Table 2).
As for `CC[C@@H](Nc1cc(F)c(C(=O)N[C@@H](Cc2ccc(-n3c(=O)c4ccncc4n(C)c3=O)nc2)C(=O)O)c(F)c1)C(F)(F)F` [Example 9, (S)-2-(2,6-difluoro-4-(((R)-1,1,1-trifluorobutan-2-yl)amino)benzamido)-3-(6-(1-methyl-2,4-dioxo-1,4-dihydropyrido[3,4-d]pyrimidin-3(2H)-yl)pyridin-3-yl)propanoic acid], the pEC50 at α4β1 integrin (Table 1) is 6.93; at α4β7 integrin (Table 1), 8.80.
